This note sets out measurements from patent publication US20230003721A1, “MITOTHERAPEUTICS FOR THE TREATMENT OF BRAIN DISORDERS” (The University of Florida Research Foundation, Inc., priority 2019, published 2023).

Where a name gives a salt, the structure may show the parent alone.

One experiment concerns primary neurons. The settings on record: 75 μM peroxide, 12.5 μM compound, 48 h.
Experiment [1] has as its system isolated forebrain mitochondria. Description: ATP production of isolated mitochondria (luciferase-based kinetic assay). The class given is biochemical, mouse. On the procedure: Isolation of mitochondria. For the ATP synthesis experiments of FIG. 6, forebrains from P0 pups were dissected as described above. 2×10^7 cells were harvested for high-purity mitochondrial isolation using the Qiagen QProteome kit. The mitochondrial pellet was resuspended in 500 μl mitochondria storage buffer (provided by kit) and kept on ice until further use.
ATP production of isolated forebrain mitochondria of P0 pups was measured by ATP Determination Kit (Molecular Probes). […] The reactions were initiated by the addition of 1 mM ADP (deprived of ATP contamination by adding 3 U/ml hexokinase to 10 mM of ADP in 50 mM Tris-HCl, 20 mM MgCl2 and 22 mM glucose, incubating the solution at 37° C. for 1 hr and heat inactivating the hexokinase at 100° C. for 3 min). Luminescence was recorded every 15-30 sec for 1 hr at 580±40 nm.

`CCCCOc1ccc(C(=O)CCN2CCCCC2)cc1` [DYCLONINE HYDROCHLORIDE]: the “protection from peroxide (PO) induced mitochondrial fragmentation” value with primary neurons is reported as “fully protected”. The “ATP production kinetics, amplitude of single exponential fit” value in experiment [1] (12 μM, starting 20 min after addition, DMSO 22498±358) came to 28882±673. In addition, in experiment [1] (12.5 μM, within the 45-min measurement period, vs DMSO), the “ATP production of isolated mitochondria (direct effect)” value was “significantly increased”.
